Measurements as given in US20070213278A1, “Arrays with cleavable linkers” (priority 2004, published 2007).
Marks after values point to notes of the source that are not given here.

Assays:
[1] = tested on: 2G12 anti-HIV antibody; test: 2G12 binding to glycan array printed on glass slide; set-up: species or system human; details: for Rel. spec. (relative binding activity of 2G12): glycan array on glass slide, 2G12 pre-complexed with anti-IgG-FITC; for 2G12 binding on glycan array: initial experiments
Text: The natural high mannose type N-glycans used for the analysis were purified from pronase treated bovine ribonuclease B on Dionex. Each preparation was a single molecular weight species as determined by MALDI-MS.
Construction of a glycan array printed on a glass slide: The library of carbohydrate structures was obtained through chemical and chemo-enzymatic synthesis as described above, as well as natural sources. This compound library contained a N-hydroxy succinimide (NHS)-reactive primary amino group, which was printed on a commercial NHS-activated glass surface (Accelr8 Technology Corporation, Denver, Colo.) using a microarray gene printer (TSRI).
Each glycan type was printed (≈0.5 nL/spot) at various concentrations (10-100 μM) and each concentration in a replicate of six. Slides were further incubated with ethanolamine buffer to deactivate remaining NHS functional groups.
The 2G12 antibody was pre-complexed (for 10 min) with secondary human anti-IgG-FITC (2:1, 20 μg/mL) prior to application to the glycan array. After incubation with the 2G12 antibodies, the array washed by dipping the slide in buffer and water.

[2] = target: T1, chST6GalNAc-I (Gallus gallus, UniProt Q92183); test: chST6GalNAc-I activity on small acceptor molecules; type: biochemical, chicken; details: α-D-galacto derivatives as acceptors
T1 construct: made in house; host or cells: insect cells
Text: The inventors have previously reported the cloning, expression, and characterization of chicken ST6GalNAc-I and its use in preparative synthesis of the O-linked sialoside antigens, STn-, α(2-6)SiaT-, α(2-3)SiaT- and Di-SiaT-antigen. Blixt, O.; Allin, K.; Pereira, L.; Datta, A. and Paulson, J. C., J. Am. Chem. Soc. 2002, 124, 5739-5746. Briefly, the recombinant enzyme was expressed in insect cells and purified by CDP-sepharose affinity chromatography to generate approximately 10 U/L of cell culture.

[3] = tested on: 2G12 antibody; test: Carbohydrate microarray analysis, microtiter plate, oligomannose-2G12 dissociation constants (Example 11); type: binding, human; details: microtiter plate array
Method: Carbohydrate microarray analysis. Ninety-six well NHS-coated microtiter plates (NoAb Biodiscoveries) were treated with 200 μL of a 1 mM methanolic solution of the amino-functionalized disulfide and alkyne containing linker (scheme V) containing 5% diisopropylethylamine (DIEA) and incubated overnight at 4° C. The microtiter plate was then washed with 2×200 μL methanol and 2×200 μL water. Next, 200 μL solutions of azido-functionalized oligomannose derivatives 21-25 at varying concentrations from 0 to 500 μM in 5% DIEA/methanol were introduced. A sprinkle of copper (I) iodide was added and the contents were allowed to react overnight at 4° C. The next day, the contents were removed and the plates were washed with 2×200 μL methanol and 2×200 μL water. The plates were then blocked with 0.1% Tween20 solution in HEPES buffer pH 7.5 at 4° C. for 1 hour and then washed with 3×200 μL HEPES buffer. […] Detection of the FITC-tagged secondary antibody was performed in 200 μL water using a fluorescence plate reader. […]
Carbohydrate Microarray Analysis. […] Kd values for the interaction of 2G12 with oligomannoses 4, 5, 7, 8, 9 (Table 9) were determined using a microtiter-based assay with detection via a fluorescent secondary antibody (see Bryan et al.(2004) J. Am. Chem. Soc. 126, 8640-41).

[4] = target: 2G12 antibody; test: 2G12 binding, cleavable linker glycan array in microtiter plates (Example 10); set-up: species or system human; details: for 2G12 epitope / affinity: cleavable linker array
Method: Cleavable Linker Glycan Array in Microtiter Plates: Further experiments were performed using glycans immobilized within microtiter wells with the cleavable triazole linkers described in Example 7 as shown in FIG. 11.
2G12 Binding: After washing with QH2O, wells were blocked with 10 mM HEPES buffer, pH 7.5/150 mM NaCl buffer (200 μL) containing 0.1% Tween-20 over 1 h at 4° C. The buffer was then removed and 2G12 (17 μg/mL PBS buffer; 200 μL) was incubated in the well over 1 h at 4° C. Wells were then washed with PBS buffer (3×; 200 μL) and fluorescein-conjugated Goat Anti-Human IgG antibody (14 μg/mL PBS buffer; 200 μL) was incubated in the well over 1 h in the dark at 4° C. Wells were then washed with PBS buffer (3×; 200 μL) and fluorescence was measured with an excitation wavelength of 485 nm and emission wavelength of 535 nm.
Further studies were performed using a cleavable linker array to clarify the types of mannose-containing glycans bound by the 2G12 anti-HIV antibodies. […] The results of a binding study using increasing amounts of labeled Manα1,2Manα1,3Manα1,2 Manα1,6Man glycan with a constant amount of 2G12 antibody are shown in FIG. 16.

[5] = tested on: 2G12 binding to gp120JR-CSF; test: Solution phase ELISA, oligomannose inhibition of 2G12 binding to gp120; set-up: species or system human; details: oligomannose at 0.5 mM
Method: Enzyme-linked immunosorbent assay. Microtiter plate wells (flat bottom, Costar type 3690; Corning Inc.) were coated with 50 ng/well gp120JR-CSF overnight at 4° C. All subsequent steps were performed at room temperature. The wells were then washed four times with PBS/0.05% (vol/vol) Tween20 (Sigma) using a microplate washer (SkanWash 400, Molecular Devices) prior to blocking for 1 hr with 3% (mass/vol) BSA. IgG 2G12, diluted to 0.5 μg/mL (25 ng/well) with 1% (mass/vol) BSA/0.02% (vol/vol) Tween20/PBS (PBS-BT), was then added for 2 hrs to the antigen-coated wells in the presence of serially-diluted oligomannoses starting at 2 mM.
Unbound antibody was removed by washing four times, as described above. Bound 2G12 was detected with an alkaline phosphatase-conjugated goat anti-human IgG F(ab′)2 antibody (Pierce) diluted 1:1000 in PBS-BT. After 1 hr, the wells were washed four times and bound antibody was visualized with p-nitrophenol phosphate substrate (Sigma) and monitored at 405 nm.
Solution Phase ELISA Assay Analysis of Oligomannose 1-8 Inhibition of 2G12 Binding. Man9GlcNAc2 1 and deprotected oligomannoses 2-6 and 7-9 (see FIG. 17) were evaluated for their ability to inhibit the interaction between 2G12 and gp120 in a solution phase enzyme-linked immunosorbent assay (ELISA). […]

T1 sequence (Q92183 whole entry): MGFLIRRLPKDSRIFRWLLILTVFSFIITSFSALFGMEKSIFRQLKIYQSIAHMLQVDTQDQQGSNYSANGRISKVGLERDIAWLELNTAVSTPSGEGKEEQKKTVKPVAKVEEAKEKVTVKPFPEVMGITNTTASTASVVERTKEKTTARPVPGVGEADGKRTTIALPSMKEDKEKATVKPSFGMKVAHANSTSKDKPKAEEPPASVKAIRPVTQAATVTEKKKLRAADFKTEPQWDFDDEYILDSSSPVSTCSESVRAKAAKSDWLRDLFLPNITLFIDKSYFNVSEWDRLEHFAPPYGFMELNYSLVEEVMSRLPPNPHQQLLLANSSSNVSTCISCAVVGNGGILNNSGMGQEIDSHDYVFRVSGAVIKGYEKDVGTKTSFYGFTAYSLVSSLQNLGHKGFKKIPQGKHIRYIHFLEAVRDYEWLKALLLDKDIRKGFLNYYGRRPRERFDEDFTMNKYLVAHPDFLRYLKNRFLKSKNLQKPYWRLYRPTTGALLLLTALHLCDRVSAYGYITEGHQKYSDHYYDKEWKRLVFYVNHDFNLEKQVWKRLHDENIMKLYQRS

Compound: CC(=O)N[C@H]1C(O)O[C@H](CO)[C@@H](O[C@@H]2O[C@H](CO)[C@H](O)[C@H](O)[C@H]2O)[C@@H]1O (some centres unmarked) [Compound 6]
- Rel. spec. (relative binding activity of 2G12) [1]: − (− = <1000)
- chST6GalNAc-I activity, cpm [2]: 13277 cpm
- chST6GalNAc-I activity, nmol/mg × min^−1 [2]: 12.50* nmol/mg × min^−1

Compound: Man-9#aa Man9-aminoacid [Glycan 145]
- 2G12 binding on glycan array [1]: smaller level of binding

Compound: NCCCCCO[C@H]1O[C@H](CO[C@H]2O[C@H](CO)[C@@H](O)[C@H](O)[C@@H]2O[C@H]2O[C@H](CO)[C@@H](O)[C@H](O)[C@@H]2O)[C@@H](O)[C@H](O[C@H]2O[C@H](CO)[C@@H](O)[C@H](O)[C@@H]2O[C@H]2O[C@H](CO)[C@@H](O)[C@H](O)[C@@H]2O)[C@@H]1O [Oligomannose 5]
- 2G12 binding affinity [3]: greatest affinity

Compound: Manα1,2 Manα1,2Manα1,3Man
- Kd ([4]; binding to 2G12, cleavable linker array): 100 nM
- 2G12 epitope / affinity [4]: optimal epitope(s) with micromolar affinity to 2G12

Compound: CC(=O)N[C@H]1C(O)O[C@H](CO)[C@H](O)[C@@H]1O (stereo partly drawn) [D-GalNAc, reference compound]
- chST6GalNAc-I activity, nmol/mg × min^−1 [2]: 0.00 nmol/mg × min^−1

Compound: O=[N+]([O-])c1ccc(O[C@@H]2OC(CO)[C@@H](O[C@@H]3OC(CO)[C@H](O)[C@H](O)C3O)[C@H](O)C2O)cc1 (some centres unmarked) [Compound 5]
- Rel. spec. (relative binding activity of 2G12) [1]: − (− = <1000)
- chST6GalNAc-I activity, cpm [2]: 1421 cpm
- chST6GalNAc-I activity, nmol/mg × min^−1 [2]: 1.30 nmol/mg × min^−1

Compound: Oligomannose 3
- inhibition (%) of 2G12 binding to gp120 [5]: 15.8%

Compound: Man-8#aa Man8-aminoacid [Glycan 144]
- 2G12 binding on glycan array [1]: Binding was observed

Compound: Manα1,2Manα1,3Manα1,2 Manα1,6Man
- 2G12 epitope / affinity [4]: optimal epitope(s) with micromolar affinity to 2G12

Compound: OCC1O[C@@H](O)C(O)[C@@H](O)[C@@H]1O[C@@H]1OC(CO)[C@H](O)[C@H](O)C1O (some centres unmarked) [Compound 4]
- Rel. spec. (relative binding activity of 2G12) [1]: − (− = <1000)
- chST6GalNAc-I activity, cpm [2]: 3043 cpm
- chST6GalNAc-I activity, nmol/mg × min^−1 [2]: 2.90 nmol/mg × min^−1
